Consider three molecules from patent publication US3981868A.

≈ marks a conversion by molar mass, not a printed value.

For the first assay, the system named is diastolic blood pressure. The experiment in a line: hypotensive activity in anesthetized rats (minimal dose lowering diastolic blood pressure about 10 mm.). Type of assay: in vivo, Male Wistar strain rats. The settings on record: Rattus norvegicus; intravenous; dose producing a decrease of about 10 mm. in diastolic blood pressure. The procedure: This procedure is a modification of the technique described by Pike et al., Prostaglandins, Nobel Symposium 2, Stockholm, June, 1966; p. 165.
Male Wistar strain rats (Royal Hart Farms) averaging approximately 250 grams in weight were fastened to rat boards in a supine position by means of canvas vests and limb ties. The femoral area was infiltrated subcutaneously with lidocaine and the iliac artery and vein were exposed and cannulated. Arterial blood pressure (systolic/diastolic) was recorded using a Statham P23 Db pressure transducer-Offner dynograph system. To obtain a stable blood pressure, the animals were anesthetized before use with pentobarbital, 30 mg./kg. of body weight intravenously, and also were given hexamethonium bitartrate, 2 mg./kg., of body weight intravenously. The test compounds were prepared by ultrasonic dispersion in a saline-Tween 80 vehicle. A constant intravenous dose volume of 0.5 ml. was administered and test doses ranged from 0.1 to 10.0 mg./kg. of body weight. Increasing or decreasing doses were selected depending on the dose response obtained. In Table I below are set forth the minimal doses required to produce a decrease of about 10 mm. in diastolic blood pressure for typical compounds of the present invention.
What is called minimal effective dose is the lowest level tested that produced the effect sought. Molecule `CCCCCC/C=C/[C@H]1CCC(=O)[C@@H]1CCCCCCC(=O)N1CCOCC1` (relative stereo) had a minimal effective dose of 1 mg/kg.
The same measure, in the same setting: under `CCCCCC/C=C/[C@H]1CCC(=O)[C@@H]1CCCCCCC(=O)N1CCCC1` (relative stereo) stands 8 mg/kg.
On the same count and under the same terms, under `CCCCCC/C=C/[C@H]1CCC(=O)[C@@H]1CCCCCCC(N)=O` (relative stereo) [9-oxo-13-trans-prostenamide] stands 2 mg/kg.

For another assay, the system named is Microsporum canis ATCC 10214. The experiment in a line: agar-dilution streak-plate antifungal assay (1). Type of assay: cell-based. Particulars: ATCC10214, read-out: Minimal inhibitory conc. The procedure: (§1) The novel compounds of the present invention are also useful as antimicrobial agents. […] In this assay, the compounds to be tested are made up to contain 2.5 mg. of test compound per milliliter of solution. Observing sterile techniques, two-fold serial dilutions are made of each test solution. One milliliter of each of the original solutions and of each of the serial dilutions is then added to 9 ml. of warm sterile nutrient agar capable of supporting growth of the bacterial test cultures. A second set of agar dilutions is prepared identical to the first except that the nutrient agar is designed to support the growth of the fungal test cultures. […] The test bacteria and yeast-like fungi are prepared for use by growing in broth overnight. The spores of the filamentous fungi are harvested from mature agar slant cultures and are suspended in sterile physiological saline solution. A loopful of each of the resulting live suspensions is then, still employing sterile techniques, streaked upon the surfaces of each of the agar plates and the resulting streaked plates are then incubated. After an appropriate period of time, each of the streaks on each of the plates is inspected visually and the extent, if any, of bacterial or fungal growth is noted. The minimal inhibitory concentration (expressed in micrograms per milliliter) is defined as the concentration of test compound causing complete inhibition of growth of any particular organism. In a representative operation, and merely by way of illustration, the minimal inhibitory concentration of typical compounds of the present invention against a variety of test organisms as determined in the above-described assay are set forth in Tables II and III below: […]
With `CCCCCC/C=C/[C@H]1CCC(=O)[C@@H]1CCCCCCC(=O)N1CCOCC1` (relative stereo), the MIC turned out to be 250 µg/mL (≈ 638 µM).
On the same count and under the same terms, under `CCCCCC/C=C/[C@H]1CCC(=O)[C@@H]1CCCCCCC(=O)N1CCCC1` (relative stereo) stands 100 µg/mL (≈ 266 µM); under `CCCCCC/C=C/[C@H]1CCC(=O)[C@@H]1CCCCCCC(N)=O` (relative stereo) [9-oxo-13-trans-prostenamide], 50 µg/mL (≈ 156 µM).

The next assay relates to Microsporum gypseum ATCC 14683. Kind of assay: agar-dilution streak-plate antifungal assay (2). Type of assay: cell-based. Particulars: Nannizzia gypsea, ATCC14683, read-out: Minimal inhibitory conc. The method, then:
as §1
Regarding `CCCCCC/C=C/[C@H]1CCC(=O)[C@@H]1CCCCCCC(=O)N1CCCC1` (relative stereo), the MIC was found to be 10 µg/mL (≈ 26.6 µM).
On to `CCCCCC/C=C/[C@H]1CCC(=O)[C@@H]1CCCCCCC(N)=O` (relative stereo) [9-oxo-13-trans-prostenamide], for which the MIC turned out to be 50 µg/mL (≈ 156 µM).

Another assay concerns Trichophyton tonsurans NIH 662. Kind of assay: agar-dilution streak-plate antifungal assay (3). The settings on record: NIH662, read-out: Minimal inhibitory conc. Type of assay: cell-based. The procedure: as §1
For the molecule `CCCCCC/C=C/[C@H]1CCC(=O)[C@@H]1CCCCCCC(=O)N1CCOCC1` (relative stereo), the MIC was 250 µg/mL (≈ 638 µM).
On the same count and under the same terms, under `CCCCCC/C=C/[C@H]1CCC(=O)[C@@H]1CCCCCCC(=O)N1CCCC1` (relative stereo) stands 50 µg/mL (≈ 133 µM); under `CCCCCC/C=C/[C@H]1CCC(=O)[C@@H]1CCCCCCC(N)=O` (relative stereo) [9-oxo-13-trans-prostenamide], 50 µg/mL (≈ 156 µM).

For another assay, the system named is Trichophyton mentagrophytes E 11?
The experiment in a line: agar-dilution streak-plate antifungal assay (4). Type of assay: cell-based. Particulars: read-out: Minimal inhibitory conc. The procedure: as §1
As to `CCCCCC/C=C/[C@H]1CCC(=O)[C@@H]1CCCCCCC(=O)N1CCOCC1` (relative stereo), the MIC was found to be 250 µg/mL (≈ 638 µM).
Still for that read-out and setting: under `CCCCCC/C=C/[C@H]1CCC(=O)[C@@H]1CCCCCCC(=O)N1CCCC1` (relative stereo) stands 50 µg/mL (≈ 133 µM); under `CCCCCC/C=C/[C@H]1CCC(=O)[C@@H]1CCCCCCC(N)=O` (relative stereo) [9-oxo-13-trans-prostenamide], 25 µg/mL (≈ 77.8 µM).

Another assay deals with Trichophyton rubrum E 97. The experiment in a line: agar-dilution streak-plate antifungal assay (5). Type of assay: cell-based. The settings on record: E97, read-out: Minimal inhibitory conc. The procedure: as §1
Regarding `CCCCCC/C=C/[C@H]1CCC(=O)[C@@H]1CCCCCCC(=O)N1CCCC1` (relative stereo), the MIC turned out to be 25 µg/mL (≈ 66.6 µM).
Same read-out and setting: under `CCCCCC/C=C/[C@H]1CCC(=O)[C@@H]1CCCCCCC(N)=O` (relative stereo) [9-oxo-13-trans-prostenamide] stands 50 µg/mL (≈ 156 µM).

A further assay relates to Mycobacterium smegmatis ATCC 606. The experiment in a line: agar-dilution streak-plate antibacterial assay (6). Type of assay: cell-based. Particulars: Mycolicibacterium smegmatis, ATCC606, read-out: Minimal inhibitory conc. The procedure:
as §1
For `CCCCCC/C=C/[C@H]1CCC(=O)[C@@H]1CCCCCCC(=O)N1CCOCC1` (relative stereo), the MIC turned out to be 25 µg/mL (≈ 63.8 µM).
As to `CCCCCC/C=C/[C@H]1CCC(=O)[C@@H]1CCCCCCC(=O)N1CCCC1` (relative stereo), the MIC was 5 µg/mL (≈ 13.3 µM).
Still for that read-out and setting: under `CCCCCC/C=C/[C@H]1CCC(=O)[C@@H]1CCCCCCC(N)=O` (relative stereo) [9-oxo-13-trans-prostenamide] stands 25 µg/mL (≈ 77.8 µM).

The subject of a further assay is Staphylococcus aureus Rose ATCC 14154. Kind of assay: agar-dilution streak-plate antibacterial assay (7). Particulars: ATCC14154, read-out: Minimal inhibitory conc. Type of assay: cell-based. The method, then:
as §1
For `CCCCCC/C=C/[C@H]1CCC(=O)[C@@H]1CCCCCCC(=O)N1CCCC1` (relative stereo), the MIC stood at 50 µg/mL (≈ 133 µM).
In the case of `CCCCCC/C=C/[C@H]1CCC(=O)[C@@H]1CCCCCCC(N)=O` (relative stereo) [9-oxo-13-trans-prostenamide], the MIC is 50 µg/mL (≈ 156 µM).

Another assay relates to Streptococcus pyogenes C 203. Kind of assay: agar-dilution streak-plate antibacterial assay (8). Type of assay: cell-based. The settings on record: C203, read-out: Minimal inhibitory conc. The method, then:
as §1
Turning to `CCCCCC/C=C/[C@H]1CCC(=O)[C@@H]1CCCCCCC(=O)N1CCOCC1` (relative stereo), the MIC stood at 25 µg/mL (≈ 63.8 µM).
Take `CCCCCC/C=C/[C@H]1CCC(=O)[C@@H]1CCCCCCC(=O)N1CCCC1` (relative stereo): the MIC is 5 µg/mL (≈ 13.3 µM).
For `CCCCCC/C=C/[C@H]1CCC(=O)[C@@H]1CCCCCCC(N)=O` (relative stereo) [9-oxo-13-trans-prostenamide], the MIC came to 10 µg/mL (≈ 31.1 µM).

In the next assay the test system is dl-PGE1-induced contraction of gerbil colon. Kind of assay: inhibition of dl-PGE1-induced contraction of gerbil colon. Particulars: sub-maximal challenge, 20 ng./ml. dl-PGE1; 50% inhibition of maximum response; approximate.
Description: Testing for prostaglandin antagonist action is carried out in the following manner.
Sections of ascending colon, approximately 20 mm. long, from mature male gerbils (Meriones unguiculatus) weighing 70-80 g. were mounted in DeJalon's solution (154 mM NaCl; 5.95 mM NAHCO3 ; 278 mM glucose, 5.64 mM KCl and .27 mM Cacl2 in 20 ml. tissue baths) (L. and K Glass Co., Lynnhurst, N.J.). The medium was continually gassed with a mixture of 95% 02 -5% CO2 and maintained at 37°C. The tissues were suspended via silk suture threads between a glass hook at the base and a model FT .03C force displacement transducer (Grass Instrument, Quincy, Mass.).
After mounting, tissues were allowed to stabilize 15-20 minutes during which time adjustments were made to establish and maintain a 0.5 g. resting tension on the muscle. Thereafter, test cycles of 3-5 minutes were begun and consisted of a 1 minute exposure to the potential antagonist, if called for, followed by a 1 minute exposure to the prostaglandin agonist, a 15-30 sec. washout and a recovery period of 2-2.5 minutes. […] During the washout period, the tissue was rinsed with a measured amount equalling 8 volumes of medium. Muscle relaxation was virtually complete by the end of the washout period.
Following stabilization, muscles were exposed 2 to 3 times to this concentration of dl-PGE1 until a consistent response was recorded. Once maximal responses are established, test cycles with potential antagonists were commenced and were followed alternatively with prostaglandin-only test cycle. […] The contraction of the muscle induced by 200 ng./ml. dl-PGE1 following exposure to a given concentration of the potential antagonist was always compared to the response of the tissue to that level of dl-PGE1 in the immediately preceding cycle. Using a series of potential antagonist concentrations, an approximate ID50 (concentration at which 50% inhibition was observed) was established.
As to `CCCCCC/C=C/[C@H]1CCC(=O)[C@@H]1CCCCCCC(=O)N1CCCC1` (relative stereo), the “ID50 vs. 20 ng. of PGE1 /ml.” value came to 1 µg/mL.
Regarding `CCCCCC/C=C/[C@H]1CCC(=O)[C@@H]1CCCCCCC(N)=O` (relative stereo) [9-oxo-13-trans-prostenamide], the “ID50 vs. 20 ng. of PGE1 /ml.” value came out at 5 µg/mL.
